The values below are quoted from earlier work in patent publication US9555026B2, “Solid dispersion comprising amorphous cilostazol” (OTSUKA PHARMACEUTICAL CO., LTD., priority 2013, dated 2017).

The conditions of this data set: after meal versus fasting.

Consider `O=C1CCc2cc(OCCCCc3nnnn3C3CCCCC3)ccc2N1` [cilostazol, 6-[4-(1-cyclohexyl-1H-tetrazol-5-yl)butoxy]-3,4-dihydrocarbostyril], for which the “AUC administered after meal, higher than that of fasting” value is 1.4 times and the “Cmax administered after meal, higher than that of fasting” value is recorded as 2.3 times.
